What was measured:
[1] = system: Human immunodeficiency virus 1; test: Antiviral activity against HIV1 3B infected in human MT4 cells assessed as reduction of virus-induced cytopathogenicity by MTT assay; assay type: functional, organism-based; conditions: Human immunodeficiency virus 1, 3B
[2] = Cytotoxicity against human MT4 cells by MTT method; assay type: cell-based
[3] = biological target: T1, Human immunodeficiency virus type 1 integrase (Human immunodeficiency virus 1, UniProt Q7ZJM1); test: Inhibition of HIV1 integrase using labelled oligonucleotide substrate by ELISA
[4] = biological target: T1, Human immunodeficiency virus type 1 integrase; test: Inhibition of HIV1 integrase 3'-processing activity using labelled oligonucleotide substrate by ELISA
[5] = Therapeutic index, ratio of CC50 for human MT4 cells to EC50 for HIV1 3B; assay type: cell-based; conditions: read-out: Ratio CC50/EC50
[6] = biological target: T1, Human immunodeficiency virus type 1 integrase; test: Inhibition of HIV1 integrase strand transfer activity using labelled oligonucleotide substrate by ELISA

T1 sequence (Q7ZJM1 whole entry): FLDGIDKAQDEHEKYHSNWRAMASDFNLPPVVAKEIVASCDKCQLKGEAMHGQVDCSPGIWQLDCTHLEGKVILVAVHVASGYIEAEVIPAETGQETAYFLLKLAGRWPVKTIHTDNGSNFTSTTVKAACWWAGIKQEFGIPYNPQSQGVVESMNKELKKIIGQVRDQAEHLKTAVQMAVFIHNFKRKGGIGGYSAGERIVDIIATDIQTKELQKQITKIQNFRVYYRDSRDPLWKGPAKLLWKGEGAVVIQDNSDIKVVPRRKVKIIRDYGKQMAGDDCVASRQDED

SMILES	EC50 [1]	CC50 [2]	IC50 [3]	IC50 [4]	selectivity ratio [5]	IC50 [6]
Cc1nnc(C(=O)NC(C)(C)c2nc(C(=O)NCc3ccc(F)cc3)c(O)c(=O)n2C)o1	0.0064 µM	143 µM				
O=C1NC(=S)N/C1=C\c1ccc(-c2ccc(O)c(C(=O)O)c2)o1	95.2 µM	152 µM	50.9 µM	> 250 µM	2	> 250 µM
Cc1cc(-c2ccc(C(=O)O)c(O)c2)oc1/C=C1\NC(=S)NC1=O			> 250 µM	> 250 µM		
O=C1NC(=S)S/C1=C\c1ccc(-c2ccc(Cl)c(C(=O)O)c2)o1	> 155 µM	155 µM	> 250 µM	> 250 µM		
COc1cc(-c2ccc(/C=C3\SC(=S)NC3=O)o2)c(Cl)cc1C(=O)O	> 143 µM	143 µM	> 250 µM	> 250 µM		
O=C1NC(=S)NC(=O)C1=Cc1ccc(-c2cccc(C(=O)O)c2O)o1	> 140 µM	140 µM	> 250 µM	> 250 µM		
O=C1NC(=S)NC(=O)C1=Cc1ccc(-c2ccc(C(=O)O)c(O)c2)o1	30 µM	60 µM	8.94 µM	2.74 µM	2	69.2 µM
O=C1NC(=S)NC(=O)C1=Cc1ccc(-c2ccc(O)c(C(=O)O)c2)o1	> 222 µM	222 µM	33.4 µM	53 µM		
COc1cc(-c2ccc(C=C3C(=O)NC(=S)NC3=O)o2)c(Cl)cc1C(=O)O	> 100 µM	100 µM	43.2 µM	35.3 µM		
O=C1NC(=S)NC(=O)C1=Cc1ccc(-c2cc(C(=O)O)cc(O)c2O)o1	54.7 µM	138 µM	5.06 µM	5.79 µM	3	> 250 µM
O=C1NC(=S)NC(=O)C1=Cc1ccc(-c2ccc(F)cc2C(=O)O)o1	> 165 µM	165 µM	184 µM	47.1 µM		
Cc1ccc(C(=O)O)cc1-c1ccc(C=C2C(=O)NC(=S)NC2=O)o1	> 159 µM	159 µM	46.4 µM	25.4 µM		
O=C1NC(=S)NC(=O)C1=Cc1ccc(-c2ccc(Cl)c(C(=O)O)c2)o1	> 152 µM	152 µM	41.7 µM	12.9 µM		
Cc1cc(-c2ccc(C(=O)O)c(O)c2)oc1/C=C1\SC(=S)NC1=O			158 µM	135 µM		
COc1cc(-c2ccc(C(=O)O)c(O)c2)oc1/C=C1\SC(=S)NC1=O	112 µM	> 125 µM	> 250 µM	> 250 µM		
COc1cc(C(=O)O)cc(OC)c1-c1ccc(C=C2C(=O)NC(=S)NC2=O)o1	> 61.1 µM	61.1 µM	167 µM	> 250 µM		
O=C1NC(=S)NC(=O)C1=Cc1ccc(-c2cc(C(=O)O)cc3c2OCO3)o1	> 125 µM	> 125 µM	56.5 µM	71.6 µM		
O=C1NC(=S)S/C1=C\c1ccc(-c2ccc(C(=O)O)c(O)c2)o1	30.1 µM	> 72 µM	182 µM	> 250 µM	2	97.7 µM
O=C1NC(=S)S/C1=C\c1ccc(-c2cc(C(=O)O)cc(O)c2O)o1	18 µM	131 µM	15.5 µM	22.3 µM	7	164 µM
O=C1NC(=S)N/C1=C\c1ccc(-c2ccc(C(=O)O)c(O)c2)o1	> 193 µM	193 µM	107 µM	74 µM		
Cc1cc(-c2ccc(C(=O)O)c(O)c2)oc1C=C1C(=O)NC(=S)NC1=O	> 125 µM	> 125 µM	90.9 µM	125 µM		
Cc1c(-c2ccc(C=C3C(=O)NC(=S)NC3=O)o2)cccc1[N+](=O)[O-]	> 17.9 µM	17.9 µM	58.4 µM	40.8 µM		
